Laboratory results taken from patent US4024277A, “Phosphoro-aminosulfenyl derivatives of benzofuran carbamates” (priority 1975, dated 1977).

Tests used:
pea aphid [1] = assay: Systemic insecticidal activity (soil/water), pea aphid; type: in vivo, Acyrthosiphon pisum (Harris); details: Acyrthosiphon pisum, 48-hour exposure, read-out: % Kill, Pea Aphid
Description: (§1) c. Systemic Insecticidal Acitivity (Soil/Water)
(§2) In this test, a candidate insecticide, in solution, is added to the soil of either uninfested pinto bean seedlings (Phaseolus vulgaris) or uninfested broad bean seedlings (Vicia faba var. Windsor). The plant species used depend on the insect species in the test. Usually, a 72-hour translocation period before infestation is required, followed by a 48-hour exposure period, before evaluation of the tests. The insect species used in the systemic tests are Mexican bean beetle, southern armyworm, pea aphid, and twospotted spider mite.

confused flour beetle [2] = assay: Seven-day residual insecticidal activity, confused flour beetle; type: in vivo, Tribolium confusum Jacquelin duVal; details: Tribolium confusum, 48-hour exposure, read-out: % Kill, Confused Flour Beetle
Description: (§3) b. Seven-Day Residual Insecticidal Activity
(§4) In this test, a candidate insecticide, in solution, is applied to uninfested plants or containers by dipping or spraying. A seven-day holding period is necessary before infestation. A 48-hour exposure period is observed before evaluation of the tests. The insect species used in this type of test are the same as those listed under initial activity.

German cockroaches [3] = assay: Level II topical test, German cockroaches; type: in vivo, Blattella germanica (Linnaeus); details: GC (male), one microgram topically per insect; for mortality at 0.001 mg: Blattella germanica, topical, read-out: % Kill; for % Knockdown: 30 minutes
Description: (§5) e. Insecticidal Activity Against House Flies and German Cockroaches
(§6) In a Level II test the compounds of this invention were tested for insecticidal activity against female house flies (resistant) and male German cockroaches. Ten insects were anesthetized with carbon dioxide and placed in a container for about 2 hours, during which time the insects recovered to normal activity. The container confining the insects is fitted with a plunger which is used to force the insects against a nylon mesh at one end of the container. One microliter of an acetone solution containing one microgram of the candidate insecticide was applied topically to each insect. The plunger was withdrawn and the insects were allowed to move freely about the container. Knockdown counts were recorded 10 minutes after treatment of house flies and 30 minutes after treatment of cockroaches.

pea aphid [4] = assay: Initial insecticidal activity, pea aphid; type: in vivo, Acyrthosiphon pisum (Harris); details: Acyrthosiphon pisum, 48-hour exposure, read-out: % Kill, Pea Aphid
Description: (§7) a. Initial Insecticidal Activity
(§8) In this test, a candidate insecticide, in solution, is applied to either infested or uninfested plants or containers by spraying or dipping. (The preferred test procedure varies with insect species. The dipping method is better than the spraying method, and vice versa, for certain species of insects. Also some species are better adapted to the test by infesting after the chemical treatment rather than before.) Once the tests have been established, a 48-hour exposure period is observed before reading the tests. Insect species included in these tests are Mexican bean beetle (Epilachna varivestis Mulsant), pea aphid [Acyrthosiphon pisum (Harris)], southern armyworm [Spodoptera eridania (Cramer)], twospotted spider mite (Tetranychus urticae Koch), large milkweed bug [Oncopeltus fasciatus (Dallas)], plum curculio [Conotrachelus nenuphar (Herbst)], confused flour beetle (Tribolium confusum Jacquelin duVal) and granary weevil [Sitophilus granarius (Linnaeus)]. Test results are set forth in Table I. A control sample, comprising the solution without the candidate insecticide, is also included.

southern armyworm [5] = assay: Seven-day residual insecticidal activity, southern armyworm; type: in vivo, Spodoptera eridania (Cramer); details: Spodoptera eridania, 48-hour exposure, read-out: % Kill, Southern Armyworm
Description: as §3, §4

twospotted spider mite [6] = assay: Initial insecticidal activity, twospotted spider mite; type: in vivo, Tetranychus urticae Koch; details: Tetranychus urticae, 48-hour exposure, read-out: % Kill, Twospotted Spider Mite
Description: as §7, §8

Mexican bean beetle [7] = assay: Seven-day residual insecticidal activity, Mexican bean beetle; type: in vivo, Epilachna varivestis Mulsant; details: Epilachna varivestis, 48-hour exposure, read-out: % Kill, Mexican Bean Beetle
Description: as §3, §4

large milkweed bug = assay: Initial insecticidal activity, milkweed bug; type: in vivo, Oncopeltus fasciatus (Dallas); details: Oncopeltus fasciatus, 48-hour exposure, read-out: % Kill, Milkweed Bug
Description: as §7, §8

Mexican bean beetle [8] = assay: Systemic insecticidal activity (soil/water), Mexican bean beetle; type: in vivo, Epilachna varivestis Mulsant; details: Epilachna varivestis, 48-hour exposure, read-out: % Kill, Mexican Bean Beetle
Description: as §1, §2

twospotted spider mite [9] = assay: Seven-day residual insecticidal activity, twospotted spider mite; type: in vivo, Tetranychus urticae Koch; details: Tetranychus urticae, 48-hour exposure, read-out: % Kill, Twospotted Spider Mite
Description: as §3, §4

[10] = test system: female house flies (resistant); assay: Level II topical test, house flies; type: in vivo, Musca domestica Linnaeus; details: HF (female, resistant), one microgram topically per insect; for % Knockdown: 10 minutes; for mortality at 0.001 mg: Musca domestica, topical, read-out: % Kill
Description: as §5, §6

confused flour beetle [11] = assay: Initial insecticidal activity, confused flour beetle; type: in vivo, Tribolium confusum Jacquelin duVal; details: Tribolium confusum, 48-hour exposure, read-out: % Kill, Confused Flour Beetle
Description: as §7, §8

German cockroaches [12] = assay: Level I immersion test, German cockroaches; type: in vivo, Blattella germanica (Linnaeus); details: GC (male), 5 mg/milliliter; for mortality at 5000 µg/mL: Blattella germanica, 18-24 hours, read-out: % Kill; for % Knockdown: 30 minutes after immersion
Description: as §5
Compounds of this invention were tested in a Level I test at 5 mg. of active compounds/milliliter of a solution of 40% acetone -- 60% water.
In this test a group of ten house flies (Musca domestica Linnaeus) were completely immersed in 25 ml. of the insecticidal test solution. After 10 seconds of immersion, the test solution is removed. The house flies are then transferred to holding cages lines with paper toweling. In the case of the house flies, the knockdown counts were recorded 10 minutes after termination of the immersion. The percent kill was recorded after 18-24 hours.
The same Level I test technique was employed using male German cockroaches [Blattella germanica (Linnaeus)]. In this case, the knockdown counts were recorded 30 minutes after the termination of the immersion.

southern armyworm [13] = assay: Initial insecticidal activity, southern armyworm; type: in vivo, Spodoptera eridania (Cramer); details: Spodoptera eridania, 48-hour exposure, read-out: % Kill, Southern Armyworm
Description: as §7, §8

twospotted spider mite [14] = assay: Systemic insecticidal activity (soil/water), twospotted spider mite; type: in vivo, Tetranychus urticae Koch; details: Tetranychus urticae, 48-hour exposure, read-out: % Kill, Twospotted Spider Mite
Description: as §1, §2

Structure (SMILES)	mortality at 39 ppm (pea aphid [1]) [%]	mortality at 156 ppm (pea aphid [1]) [%]	mortality at 39 ppm (confused flour beetle [2]) [%]	mortality at 156 ppm (confused flour beetle [2]) [%]	mortality at 1250 ppm (confused flour beetle [2]) [%]	mortality at 0.001 mg (German cockroaches [3]) [%]	% Knockdown (German cockroaches [3]) [%]	mortality at 39 ppm (pea aphid [4]) [%]	mortality at 156 ppm (pea aphid [4]) [%]	mortality at 1250 ppm (pea aphid [4]) [%]	mortality at 39 ppm (southern armyworm [5]) [%]	mortality at 156 ppm (southern armyworm [5]) [%]	mortality at 1250 ppm (southern armyworm [5]) [%]	mortality at 39 ppm (twospotted spider mite [6]) [%]	mortality at 156 ppm (twospotted spider mite [6]) [%]	mortality at 1250 ppm (twospotted spider mite [6]) [%]	mortality at 39 ppm (Mexican bean beetle [7]) [%]	mortality at 156 ppm (Mexican bean beetle [7]) [%]	mortality at 1250 ppm (Mexican bean beetle [7]) [%]	mortality at 39 ppm (large milkweed bug) [%]	further results
CC(C)OP(=O)(OC(C)C)N(C)SN(C)C(=O)Oc1cccc2c1OC(C)(C)C2 [6(c), 2,3-Dihydro-2,2-dimethyl-7-benzofuranyl [(N-diisopropoxyphosphinyl) (N-methyl)aminosulfenyl][methyl]carbamate]	100	100	0	0	0	0	0	28	60	100	0	0	7	6	23	100	6	38	100	95	mortality at 156 ppm (large milkweed bug): 100%; mortality at 1250 ppm (large milkweed bug): 100%; mortality at 39 ppm (Mexican bean beetle [8]): 100%; mortality at 156 ppm (Mexican bean beetle [8]): 100%; mortality at 39 ppm (twospotted spider mite [9]): 0%; mortality at 156 ppm (twospotted spider mite [9]): 1%; mortality at 1250 ppm (twospotted spider mite [9]): 0%; % Knockdown [10]: 0%; mortality at 0.001 mg [10]: 27%; mortality at 39 ppm (confused flour beetle [11]): 0%; mortality at 156 ppm (confused flour beetle [11]): 0%; mortality at 1250 ppm (confused flour beetle [11]): 18%; mortality at 5000 µg/mL (German cockroaches [12]): 100%; % Knockdown (German cockroaches [12]): 100%; mortality at 39 ppm (southern armyworm [13]): 6%; mortality at 156 ppm (southern armyworm [13]): 73%; mortality at 1250 ppm (southern armyworm [13]): 100%; mortality at 39 ppm (twospotted spider mite [14]): 4%; mortality at 156 ppm (twospotted spider mite [14]): 19%
CCOP(=O)(OCC)N(CC)SN(C)C(=O)Oc1cccc2c1OC(C)(C)C2 [8(c), 2,3-Dihydro-2,2-dimethyl-7-benzofuranyl [(N-diethoxyphosphinyl) (N-ethyl)aminosulfenyl][methyl]carbamate]	0	100	0	0	12	0	0	0	83	100	0	0	43	5	36	100	12	93	100	100	mortality at 156 ppm (large milkweed bug): 100%; mortality at 1250 ppm (large milkweed bug): 100%; mortality at 39 ppm (Mexican bean beetle [8]): 67%; mortality at 156 ppm (Mexican bean beetle [8]): 100%; mortality at 39 ppm (twospotted spider mite [9]): 0%; mortality at 156 ppm (twospotted spider mite [9]): 0%; mortality at 1250 ppm (twospotted spider mite [9]): 0%; % Knockdown [10]: 0%; mortality at 0.001 mg [10]: 33%; mortality at 39 ppm (confused flour beetle [11]): 0%; mortality at 156 ppm (confused flour beetle [11]): 0%; mortality at 1250 ppm (confused flour beetle [11]): 50%; mortality at 5000 µg/mL (German cockroaches [12]): 100%; % Knockdown (German cockroaches [12]): 100%; mortality at 39 ppm (southern armyworm [13]): 0%; mortality at 156 ppm (southern armyworm [13]): 59%; mortality at 1250 ppm (southern armyworm [13]): 100%; mortality at 39 ppm (twospotted spider mite [14]): 4%; mortality at 156 ppm (twospotted spider mite [14]): 13%
CCOP(=O)(OCC)N(C)SN(C)C(=O)Oc1cccc2c1OC(C)(C)C2 [Example 1(c), 2,3-dihydro-2,2-dimethyl-7-benzofuranyl [(N-diethoxyphosphinyl) (N-methyl)-aminosulfenyl][methyl]carbamate]	100	100	10	18	23	0	0	0	100	100	0	5	95	21	37	100	38	89	86	100	mortality at 156 ppm (large milkweed bug): 100%; mortality at 1250 ppm (large milkweed bug): 100%; mortality at 39 ppm (Mexican bean beetle [8]): 100%; mortality at 156 ppm (Mexican bean beetle [8]): 95%; mortality at 39 ppm (twospotted spider mite [9]): 2%; mortality at 156 ppm (twospotted spider mite [9]): 1%; mortality at 1250 ppm (twospotted spider mite [9]): 9%; % Knockdown [10]: 0%; mortality at 0.001 mg [10]: 20%; mortality at 39 ppm (confused flour beetle [11]): 14%; mortality at 156 ppm (confused flour beetle [11]): 15%; mortality at 1250 ppm (confused flour beetle [11]): 33%; mortality at 5000 µg/mL (German cockroaches [12]): 100%; % Knockdown (German cockroaches [12]): 100%; mortality at 39 ppm (southern armyworm [13]): 6%; mortality at 156 ppm (southern armyworm [13]): 20%; mortality at 1250 ppm (southern armyworm [13]): 95%; mortality at 39 ppm (twospotted spider mite [14]): 2%; mortality at 156 ppm (twospotted spider mite [14]): 8%
